Several values for one entry are separate records, joined by “and”; a condition that tells them apart may be missing. Equal entries are not always repeated.

Results on four compounds are retold here after PubChem BioAssay AID2060332 (Molecular Pharmacology Branch, DTP, NCI, 2025).

This assay concerns LG0567-F671-PDC multi-cell spheroid viability. Briefly: Anticancer human tumor LG0567-F671-PDC patient-derived lung adenocarcinoma cell line growth inhibition [IpAb]. To be noted: for viability, T/C: stronger effect = lower value. The essentials: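 Spheroids of 60% malignant cells, 25% HUVEC and 15% MSC were exposed to targeted agents combined with ipatasertib or abemaciclib. Doses started at or near clinical Cmax (10 microM when unknown) and fell in half-log steps.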

Where [1] appears, read: curve of first compound, second compound 0.1 µM.
[2] abbreviates: curve of first compound, second compound 0.316 µM.
Where [3] appears, read: curve of first compound, second compound 1 µM.
The mark [4] stands for this setting: second compound 0.1 µM, first compound 0.00316 µM.
Where [5] appears, read: second compound 0.1 µM, first compound 0.01 µM.
Setting [6] is: second compound 0.1 µM, first compound 0.0316 µM.
Setting [7] is: second compound 0.1 µM, first compound 0.1 µM.
Where [8] appears, read: second compound 0.1 µM, first compound 0.316 µM.
[9] abbreviates: second compound 0.1 µM, first compound 1 µM.
Setting [10] is: second compound 0.316 µM, first compound 0.00316 µM.
[11] abbreviates: second compound 0.316 µM, first compound 0.01 µM.
Where [12] appears, read: second compound 0.316 µM, first compound 0.0316 µM.
Where [13] appears, read: second compound 0.316 µM, first compound 0.1 µM.
Setting [14] is: second compound 0.316 µM, first compound 0.316 µM.
[15] abbreviates: second compound 0.316 µM, first compound 1 µM.
The mark [16] stands for this setting: second compound 1 µM, first compound 0.00316 µM.
The mark [17] stands for this setting: second compound 1 µM, first compound 0.01 µM.
Setting [18] is: second compound 1 µM, first compound 0.0316 µM.
Where [19] appears, read: second compound 1 µM, first compound 0.1 µM.
The mark [20] stands for this setting: second compound 1 µM, first compound 0.316 µM.
Where [21] appears, read: second compound 1 µM, first compound 1 µM.
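Further: viability read after 7 days of drug exposure.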
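Wherever viability, T/C is given: 100% = DMSO vehicle control luminescence.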

By IC50 is commonly meant the concentration that inhibits the measured activity by half. For orientation: viability, T/C means the result in the treated group divided by that in the control group, in per cent. Turning to `COc1c(OCCCN2CCOCC2)ccc2c3n(c(=NC(=O)c4cnc(N)nc4)nc12)CCN3` + CCN1CCN(Cc2ccc(Nc3ncc(F)c(-c4cc(F)c5nc(C)n(C(C)C)c5c4)n3)nc2)CC1, the IC50 was 76.5 nM (curve of first compound, second compound 0.01 µM); 60.9 nM (curve of first compound, second compound 0.0316 µM); 60 nM under setting [1]; 22.8 nM under setting [2]; 73.4 nM under setting [3]. In addition, the viability, T/C (second compound 0.01 µM, first compound 0.00316 µM) is 85.5%; the viability, T/C (second compound 0.01 µM, first compound 0.01 µM) is 72.7%; the viability, T/C (second compound 0.01 µM, first compound 0.0316 µM) is 77.5%; the viability, T/C (second compound 0.01 µM, first compound 0.1 µM) was 41.6%; the viability, T/C (second compound 0.01 µM, first compound 0.316 µM) is 36.5%; the viability, T/C (second compound 0.01 µM, first compound 1 µM) was 31.8%. For the same compound, the viability, T/C is, setting by setting: (second compound 0.0316 µM, first compound 0.00316 µM) 105%; (second compound 0.0316 µM, first compound 0.01 µM) 74.6%; (second compound 0.0316 µM, first compound 0.0316 µM) 60.5%; (second compound 0.0316 µM, first compound 0.1 µM) 43.1%; (second compound 0.0316 µM, first compound 0.316 µM) 34.5%; (second compound 0.0316 µM, first compound 1 µM) 17.6%. For the same compound, the viability, T/C by setting is: under setting [4], 73%; under setting [5], 63.4%; under setting [6], 62.5%; under setting [7], 40.4%; under setting [8], 32.5%; under setting [9], 26.6%. Further, the viability, T/C by setting is: under setting [10], 67.8%; under setting [11], 74.2%; under setting [12], 41.6%; under setting [13], 33.2%; under setting [14], 31.5%; under setting [15], 20.5%. Further, the viability, T/C is, setting by setting: under setting [16], 69.7%; under setting [17], 71.1%; under setting [18], 56%; under setting [19], 43.2%; under setting [20], 40.8%; under setting [21], 25.1%.

Take `COc1c(OCCCN2CCOCC2)ccc2c3n(c(=NC(=O)c4cnc(N)nc4)nc12)CCN3` + CC(C)NCC(C(=O)N1CCN(c2ncnc3c2C(C)CC3O)CC1)c1ccc(Cl)cc1: the IC50 by setting is: under setting [1], 53.7 nM; under setting [2], 43.4 nM; under setting [3], 11.8 nM; (curve of first compound, second compound 3.16 µM) 22.4 nM; (curve of first compound, second compound 10 µM) 6.24 nM. Also, the viability, T/C was 99.6% under setting [4]; 85.8% under setting [5]; 54.7% under setting [6]; 44% under setting [7]; 32.2% under setting [8]; 29.4% under setting [9]. Further, the viability, T/C is, setting by setting: under setting [10], 82.8%; under setting [11], 75.8%; under setting [12], 47.4%; under setting [13], 42.6%; under setting [14], 28.5%; under setting [15], 19.9%. Also, the viability, T/C under setting [16] is 72.7%; the viability, T/C under setting [17] is 49.8%; the viability, T/C under setting [18] is 41%; the viability, T/C under setting [19] is 30%; the viability, T/C under setting [20] was 30.5%; the viability, T/C under setting [21] was 22.6%. Besides, the viability, T/C (second compound 3.16 µM, first compound 0.00316 µM) was 71.4%; the viability, T/C (second compound 3.16 µM, first compound 0.01 µM) is 58.5%; the viability, T/C (second compound 3.16 µM, first compound 0.0316 µM) was 46.5%; the viability, T/C (second compound 3.16 µM, first compound 0.1 µM) was 34.5%; the viability, T/C (second compound 3.16 µM, first compound 0.316 µM) was 26.7%; the viability, T/C (second compound 3.16 µM, first compound 1 µM) was 18.4%. The viability, T/C (second compound 10 µM, first compound 0.00316 µM) was 57.3%; the viability, T/C (second compound 10 µM, first compound 0.01 µM) was 42.2%; the viability, T/C (second compound 10 µM, first compound 0.0316 µM) is 39%; the viability, T/C (second compound 10 µM, first compound 0.1 µM) is 30.9%; the viability, T/C (second compound 10 µM, first compound 0.316 µM) is 18.9%; the viability, T/C (second compound 10 µM, first compound 1 µM) was 18.8%.

As to `CCCS(=O)(=O)Nc1ccc(F)c(C(=O)c2c[nH]c3ncc(-c4ccc(Cl)cc4)cc23)c1F`, the viability, T/C runs as follows: (compound 0.0316 µM) 101% and 97.6%; (compound 0.1 µM) 117% and 154%; (compound 0.316 µM) 143% and 135%; (compound 1 µM) 138%; (compound 3.16 µM) 197% and 189%; (compound 10 µM) 215% and 179%. Further, under “curve of compound”, the IC50 is over 10000 nM.

Take `Cn1nccc1Nc1nccc(-c2ccn(C(CO)c3ccc(Cl)c(F)c3)c(=O)c2)n1` (centres undefined): the viability, T/C is, setting by setting: (compound 0.0316 µM) 96.4% and 76.2%; (compound 0.1 µM) 50.8% and 58.4%; (compound 0.316 µM) 45% and 40.1%; (compound 1 µM) 41.1% and 29.3%; (compound 3.16 µM) 33.5% and 35.7%; (compound 10 µM) 36.3% and 34.5%. In addition, where the note is “curve of compound”, the IC50 was 138 nM and 166 nM.
